Organism: Rattus norvegicus
Experiment: Open TG-GATES - Regimen: Single
Assay type: toxicity, organism-based, Sprague-Dawley
Parameters: regimen Single, gender Male, age 6 weeks
Conditions: in vivo, po, 100 mg/kg, route gavage, dose level Middle; for APTT / Bas / Eos / Fbg / Hb / Ht / Lym / MCH / MCHC / MCV / Mono / Neu / PT / Plat / RBC / Ret / WBC: tissue Blood; for KIDNEY_L / KIDNEY_R / KIDNEY_TOTAL: tissue Kidney; for LIVER: tissue Liver; for A/G / ALP / ALT / AST / BUN / CRE / Ca / Cl / DBIL / GLC / IP / K / LDH / Na / PL / RALB / TBIL / TC / TG / TP / gamma-GTP: tissue Plasma

For CCOC(=O)C(C)(C)Oc1ccc(Cl)cc1 [CLOFIBRATE], the TERMINAL_BW (9 h) was 222.9 g, the APTT (9 h) was 17.6 s and the Bas (9 h) was 0%. It also gave an Eos (9 h) of 1%, a Fbg (9 h) of 227.4 mg/dL and a Hb (9 h) of 13.3 g/dL. For the same molecule, the Ht (9 h) was 38.2%, the Lym (9 h) was 80.2% and the MCH (9 h) was 21 pg. It also gave an MCHC (9 h) of 34.8%, an MCV (9 h) of 60.5 fL and a Mono (9 h) of 1.8%. For the same molecule, the Neu (9 h) was 16.6%, the PT (9 h) was 12.9 s and the Plat (9 h) was 137.6 x10_4/uL. For the same molecule, the RBC (9 h) was 630.2 x10_4/ul, the Ret (9 h) was 7.4% and the WBC (9 h) was 82.1 x10_2/uL. The KIDNEY_L (9 h) was 1 g, the KIDNEY_R (9 h) was 1 g and the KIDNEY_TOTAL (9 h) was 2.1 g. The LIVER (9 h) was 9.6 g, the A/G (9 h) was 1.6 and the ALP (9 h) was 1028.4 IU/L. For the same molecule, the ALT (9 h) was 26.6 IU/L, the AST (9 h) was 59.4 IU/L and the BUN (9 h) was 9.8 mg/dL. The CRE (9 h) was 0.4 mg/dL, the Ca (9 h) was 10.4 mg/dL and the Cl (9 h) was 101.4 meq/L. The DBIL (9 h) was 0.088 mg/dL, the GLC (9 h) was 206.4 mg/dL and the IP (9 h) was 10.3 mg/dL. For the same molecule, the K (9 h) was 3.5 meq/L, the LDH (9 h) was 182.4 IU/L and the Na (9 h) was 140.2 meq/L. It also gave a PL (9 h) of 120.4 mg/dL, an RALB (9 h) of 3.4 g/dL and a TBIL (9 h) of 0.1 mg/dL. For the same molecule, the TC (9 h) was 59.4 mg/dL, the TG (9 h) was 73 mg/dL and the TP (9 h) was 5.6 g/dL. The gamma-GTP (9 h) was 0.6 IU/L, the TERMINAL_BW (24 h) was 236 g and the APTT (24 h) was 19.1 s. The Bas (24 h) was 0%, the Eos (24 h) was 1% and the Fbg (24 h) was 223.8 mg/dL. It also gave a Hb (24 h) of 13.6 g/dL, a Ht (24 h) of 38.9% and a Lym (24 h) of 79.8%. It also gave an MCH (24 h) of 21.4 pg, an MCHC (24 h) of 34.9% and an MCV (24 h) of 61.4 fL. It also gave a Mono (24 h) of 3.2%, a Neu (24 h) of 15.4% and a PT (24 h) of 12.6 s. For the same molecule, the Plat (24 h) was 131 x10_4/uL, the RBC (24 h) was 633.6 x10_4/ul and the Ret (24 h) was 7%. It also gave a WBC (24 h) of 93.4 x10_2/uL, a KIDNEY_L (24 h) of 1 g and a KIDNEY_R (24 h) of 1 g. The KIDNEY_TOTAL (24 h) was 2 g, the LIVER (24 h) was 12 g and the A/G (24 h) was 1.6. The ALP (24 h) was 871 IU/L, the ALT (24 h) was 36 IU/L and the AST (24 h) was 65.6 IU/L. For the same molecule, the BUN (24 h) was 14.8 mg/dL, the CRE (24 h) was 0.4 mg/dL and the Ca (24 h) was 10.9 mg/dL. For the same molecule, the Cl (24 h) was 100.8 meq/L, the DBIL (24 h) was 0.088 mg/dL and the GLC (24 h) was 202 mg/dL. It also gave an IP (24 h) of 7.5 mg/dL, a K (24 h) of 3.7 meq/L and an LDH (24 h) of 219.2 IU/L. For the same molecule, the Na (24 h) was 139.6 meq/L, the PL (24 h) was 134.2 mg/dL and the RALB (24 h) was 3.4 g/dL. It also gave a TBIL (24 h) of 0.1 mg/dL, a TC (24 h) of 60.4 mg/dL and a TG (24 h) of 106.4 mg/dL. For the same molecule, the TP (24 h) was 5.6 g/dL and the gamma-GTP (24 h) was 1 IU/L.

Reference: ChEMBL document CHEMBL3885861, “Open TG-GATES”
